Measurements as given in PMC7217877, “N-AS-triggered SPMs are direct regulators of microglia in a model of Alzheimer’s disease” (Nature Communications, 2020).
Where “and” joins values, the source holds several entries; their conditions need not be identical. Equal entries are not always repeated.

How the values were obtained:
neuron = assay: acetyl-CoA level in primary cells (assay kit); format: cell-based, C57BL/6 mice; settings: Ab 10mM, replicates
Method: To confirm the generation and roles of N-AS in neurons, cells from E18 C57BL/6 mice were prepared as previously described. Cortices were dissected and then dissociated followed by incubation in papain (Worthington) at 37 °C for 15 min. Neurons were plated on poly-L-lysine-coated coverslips with neuronal culture medium, serum-free Neurobasal medium (Gibco) containing 2% B27 supplements (Gibco), 1 mM Glutamax supplement (Gibco), and 100 U ml^−1 streptomycin/ 100 U ml^−1 penicillin (Gibco) at 37 °C in a humidified atmosphere of 5% CO2. […] Primary astrocyte cultures were prepared from C57BL/6 mice as described previously. In brief, after removal of the meninges, postnatal day 7 (P7) mouse brain tissues were minced and incubated in a rocking water bath at 37 °C for 30 min in the presence of 0.25% trypsin-EDTA (Sigma-Aldrich). Enzyme-digested dissociated cells were triturated with astrocyte-specific medium (DMEM/F12 containing 10% FBS and 1% penicillin-streptomycin) and centrifuged at 155×g for 8 min. The pellet was resuspended in astrocyte-specific medium and passed through a 40-μm cell strainer. […] The human microglia treated with Aβ 1–42 and/or zileuton was incubated with N-AS (2.5 μM, 2 h, Sigma-Aldrich, 01912), and were analyzed for the generation and roles of N-AS. […]

microglia = assay: acetyl-CoA level in primary cells (assay kit); format: cell-based, C57BL/6 mice; settings: Ab 10mM, replicates
Method: To confirm the generation and roles of N-AS in neurons, cells from E18 C57BL/6 mice were prepared as previously described. Cortices were dissected and then dissociated followed by incubation in papain (Worthington) at 37 °C for 15 min. Neurons were plated on poly-L-lysine-coated coverslips with neuronal culture medium, serum-free Neurobasal medium (Gibco) containing 2% B27 supplements (Gibco), 1 mM Glutamax supplement (Gibco), and 100 U ml^−1 streptomycin/ 100 U ml^−1 penicillin (Gibco) at 37 °C in a humidified atmosphere of 5% CO2. Aβ 1–42 (10 μM, 24 h, Invitrogen, 03112) was exposed to neurons and the cells were analyzed for the generation and roles of N-AS. Primary astrocyte cultures were prepared from C57BL/6 mice as described previously. In brief, after removal of the meninges, postnatal day 7 (P7) mouse brain tissues were minced and incubated in a rocking water bath at 37 °C for 30 min in the presence of 0.25% trypsin-EDTA (Sigma-Aldrich). Enzyme-digested dissociated cells were triturated with astrocyte-specific medium (DMEM/F12 containing 10% FBS and 1% penicillin-streptomycin) and centrifuged at 155×g for 8 min. […] The human microglia treated with Aβ 1–42 and/or zileuton was incubated with N-AS (2.5 μM, 2 h, Sigma-Aldrich, 01912), and were analyzed for the generation and roles of N-AS. […]

## Ab: Aβ 1–42 (Invitrogen, 03112) used to induce an AD environment in cells
neuron
  acetyl-CoA (Fig 3e): 0.1397 and 0.4178 and 0.62 and 0.7945 and 0.1176 and 0.7145
microglia
  acetyl-CoA (Fig 3e): 0.5557 and 0.2327 and 0.5301 and 0.5514 and 0.536 and 0.6185
